Here are results for 1 compound from patent US20220226484A1, “THERAPEUTIC PEPTIDES” (COHBAR, INC., priority 2019, published 2022).

Series [1] is described as follows: Cell viability, PrestoBlue Assay. Format: cell-based, human. To be noted: human; read-out: Cell viability, % of the background corrected DMSO control value. As to the method: The effect of the peptides on cell viability can be assessed in cultured cells using suitable assay of viability such as the PrestoBlue® assay (Thermo Fisher Scientific, Waltham, Mass.). Peptides were initially prepared as 10 mM stock in DMSO and tested at a final concentration of 10 μM (0.1% DMSO). […] PrestoBlue Assay Reagent was purchased from Thermo Fisher Scientific. A172 human brain glioblastoma cell line was purchased from American Type Culture Collection (Manassas, Va.). A172 cells were grown in DMEM supplemented with 10% FBS with 100 IU/ml penicillin and 100 μg/ml streptomycin. Cultures were maintained at 37° C. in a humidified atmosphere of 5% CO2/95% air. A172 cells were seeded at 8,000 cells per well on 96-well plates. […] Cell viability was determined using a PrestoBlue Assay reagent […] according to the manufacturer's instructions. Absorption for each sample well on the plate was measured using a Cytation 3 plate reader at 560 nm and 590 nm (BioTek, Winooski, Vt.). Activity was calculated relative to 0.1% DMSO untreated control. Treatment with 0.1% DMSO alone was used as the cell viability activity control. The relative standard deviation of the DMSO control was <5%.

The subject of series [2] is SH-SY5Y Neuroblastoma Cells. Description: ATP levels (CellTiter-Glo). Format: cell-based, human. To be noted: staurosporine 1 μM. As for the experimental part: The effect of the peptides on cellular metabolism can be assessed using an assay of ATP levels in cultured cells such as human neuroblastoma cells. Peptides were initially prepared as 10 mM stock in DMSO and used at a final concentration of 10 μM (0.1% DMSO). […] CellTiter-Glo® Assay kit was purchased from Promega. SH-SY5Y human bone marrow neuroblastoma cell line was purchased from American Type Culture Collection (Manassas, Va.) and licensed from Memorial Sloan-Kettering Cancer Center (New York, N.Y.). SH-SY5Y cells were grown in DMEM/F12 medium supplemented with 10% FBS with 100 IU/ml penicillin and 100 μg/ml streptomycin. Cultures were maintained at 37° C. in a humidified atmosphere of 5% CO2/95% air. SH-SY5Y cells were seeded at 30,000 cells per well on 96-well plates. […] ATP levels were determined using a CellTiter-Glo Assay kit (Promega) according to the manufacturer's instructions. Luminescence for each sample well on the plate was measured using a Cytation 3 plate reader (BioTek, Winooski, Vt.). Activity was calculated relative to 0.1% DMSO treated control. The relative standard deviation of the result for the 0.1% DMSO treated control was <5%.
A general note: Cellular ATP, detected with luciferase, serves as a proxy for viable cell number.

For `CN[C@@H]1C[C@H]2O[C@@](C)([C@@H]1OC)n1c3ccccc3c3c4c(c5c6ccccc6n2c5c31)C(=O)NC4` [staurosporine, Staurosporine, reference compound], in series [1], the viability at 1 µM is below 75%. In addition, the “ATP levels, % of the 0.1% DMSO treated control value” in series [2] was below 5%.

In general, viability refers to the share of living cells, or the viability signal relative to a control.
